Here are results for one molecule from publication PMC4506520, “Aneuploidy generates proteotoxic stress and DNA damage concurrently with p53-mediated post-mitotic apoptosis in SAC-impaired cells” (Nature Communications, 2015).

In the assay the target is T1, CENP-E (Homo sapiens, UniProt Q02224).
T1 construct: gene CENPE; motor domain
T1 sequence (Q02224 6-329 limits assumed): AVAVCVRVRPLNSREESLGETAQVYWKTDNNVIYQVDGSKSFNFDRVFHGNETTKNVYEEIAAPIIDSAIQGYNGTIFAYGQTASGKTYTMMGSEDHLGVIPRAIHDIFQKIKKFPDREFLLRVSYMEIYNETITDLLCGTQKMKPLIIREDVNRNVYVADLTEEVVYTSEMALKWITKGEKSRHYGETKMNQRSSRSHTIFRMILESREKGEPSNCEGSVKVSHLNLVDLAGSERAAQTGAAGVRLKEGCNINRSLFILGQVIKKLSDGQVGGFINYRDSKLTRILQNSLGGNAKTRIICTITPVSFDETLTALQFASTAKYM
The assay is described as follows: ATPase activity assay of the CENP-E motor domain. The class given is biochemical.

As usually defined, the IC50 is the midpoint of a concentration-inhibition curve. A low value points to greater potency. `COc1cccc2nc(C(=O)N(CCN(C)C)C3CS(=O)(=O)c4c3ccc(C(F)(F)F)c4C#N)c(-c3ccc(F)c(C)c3)n12` (single isomer, unassigned; (+)) [Cmpd-A, (+)-N-[7-cyano-1,1-dioxido-6-(trifluoromethyl)-2,3-dihydro-1-benzothiophen-3-yl]-N-[2-(dimethylamino)ethyl]-3-(4-fluoro-3-methylphenyl)-5-methoxyimidazo[1,2-a]pyridine-2-carboxamide]: the IC50 turned out to be 2.2 nM.
